# Entries after “also recorded” stand apart in the source; their conditions may differ.
# Legend:
# [1] = test system: CCl4-induced liver injury in mice; assay: Hepatoprotection studies on CCl4-induced liver injury in mice; format: in vivo, ICR male mice; conditions: for ALT / AST: serum, 20 hours after CCl4
# Description: ICR male mice (8 mice for each group) were used. Astilbin (50 or 100 mg/kg) and RSG ext (100 or 200 mg/kg) were administered orally for 6 days. One hour after final administration, mice were intraperitoneally injected with 0.2% CCl4 in olive oil (0.2 ml/20 g of body weight).
# For the control studies, only CCl4 injected mice without drug administration were used.
# Then, 20 hours after administration of CCl4, the blood samples were collected, and used for determining the serum ALT and the serum AST activities by the conventional methods.
# [2] = test system: NPC isolated from liver injury mice; assay: ALT-releasing assay, co-culture of HC with pre-treated NPC; format: cell-based; conditions: for ALT activity in supernatants of HC co-cultured with pre-treated NPC: Example 5 Experiment 2, NPC incubated with test compound 1 hour, co-culture 3 hours, FIG. 6
# Description: HC and NPC were isolated from mice 12 hours after elicitation of liver injury. Thus obtained HC was suspended in WE medium, and was seeded onto 96-wells microplates (2×10^4 cells/0.2 ml/wells), and incubated at 37° C. for 5 hours with 5% (v/v) CO2 in air. After incubation, the HC was washed twice with WE medium and co-cultured with NPC of 8×10^4 cells for 3 hours. NPC was pre-incubated for 1 hour at 37° C. with various concentration of astilbin or RSG ext. After co-culture, the supernatants were collected for assaying ALT and AST activities by the conventional methods.
# HC and NPC were isolated from liver injury mice 12 hours after elicitation, as the same manner described in Experiment 4. Thus the HC was suspended in WE medium, and was seeded onto 96-wells microplates (2×10^4 cells/0.2 ml/wells), and incubated at 37° C. for 5 hours with 5% (v/v) CO2 in air. After incubation, the HC was washed twice with WE medium and co-cultured with NPC of 8×10^4 cells, which were pre-treated with 5×10^−5 g/ml of astilbin or RSG ext for 5, 15, 30, 60 and 120 minutes respectively, at 37° C. for 3 hours. After co-culture, the supernatants were collected for assaying the ALT activity by the conventional methods.
# HC (2×10^4 cells/0.2 ml/wells in WE medium) were seeded onto 96-well microplates and incubated at 37° C. with 5% (v/v) CO2 in air.
# On the other hand, NPC was incubated in the medium with or without test compounds for 1 hour. The test compounds were smitilbin of the formula (I-a), astilbin of the formula (I-b), engeletin of the formula (I-c), and eucryphin of formula (I-d), respectively.
# After 5 hours of the incubation, each monolayers of HC were washed twice with the medium, and then 8×10^4 cells of NPC, pre-treated with or without above test compounds, were added. After 3 hours of further incubation, the supernatants were collected and used for assaying the ALT activity by the conventional methods.
# [3] = test system: NPC and spleen cells isolated from normal mice; assay: Apoptosis measurement No. 2, DNA fragmentation assay (gel agarose electrophoresis); format: cell-based; conditions: 5×10^−5 g/ml, 1 hour
# [4] = test system: HC isolated from liver injury mice; assay: ALT-releasing assay, co-culture of NPC with pre-treated HC; format: cell-based; conditions: HC pre-treated with high concentration for more than 2 hours
# Description: HC in WE medium was incubated with or without test compounds for 1 hour. Then, the HC was seeded onto 96-well microplates (2×10^4 cells/0.2 ml/wells) and incubated at 37° C. with 5% (v/v) CO2 in air for 5 hours. After 5 hours, HC monolayers were washed twice with the medium, and then 8×10^4 cells of NPC were added. […] The test compounds were the same ones as described in Experiment 2, above.
# [5] = test system: total NPC isolated from liver injury mice; assay: Apoptosis measurement No. 1, counting of apoptotic cells (Hoechst 33342); format: cell-based; conditions: 5×10^−5 g/ml, 1 hour, 37° C., NPC from liver injury mice 12 hours after elicitation, FIG. 1
# Description: (§1) HC and NPC isolated from liver injury mice 12 hours after elicitation, and fraction of adherent cells and non-adherent cells isolated from NPC were used. These cells were incubated with 5×10^−5 g/ml of astilbin and RSG ext, as the testing compounds, in RPMI 1640 medium at 37° C. for 1 hour, respectively. After incubation, the cells were stained with Hoechst 33342 (Molecular Probes, Inc., USA) for 1 minute at room temperature. After washed three times with RPMI 1640 medium, the obtained cells were fixed with 2% formaldehyde in phosphate buffer solution (PBS). The apoptotic cells among the total population were determined by counting a total of 200 cells in five different fields under fluorescent microscope. For the control studies, the cells treated without test compounds were incubated and followed by the same manner.
# [6] = test system: mice with liver injury induced by delayed-type hypersensitivity (DTH) reaction; assay: Studies for drug administration time (induction phase and effector phase); format: in vivo; conditions: for histopathological examination of liver (inflammatory infiltration, hepatocellular coagulation necrosis): 18 hours after injection of picryl chloride into liver; for serum ALT activity: FIG. 5
# Description: The liver injury was induced by the same manner as described in Experiment 1. To determine the effects of astilbin and RSG ext on the induction phase (during sensitization) and effector phase (after elicitation of liver injury), astilbin (50 and 100 mg/kg) and RSG ext (100 and 200 mg/kg) were administered orally to the mice for once a day after 10 days from the 1st sensitization, and for 3 times at 0, 5 and 10 hours after elicitation, respectively.
# For the control studies, mice without drug administration were used, and for the positive control studies, 10 mg/kg cyclophosphamide (Cy) was administered percutaneously to the mice.
# 18 hours after the injection of picryl chloride into liver, the blood samples were collected for determining the serum ALT activity by the conventional methods. Histopathological examination of liver was also performed.
# [7] = test system: HC isolated from normal mice, treated with CCl4; assay: Hepatoprotection studies on CCl4-induced hepatocyte damage; format: cell-based; conditions: 5×10^−6 to 1×10^−4 g/ml, HC treated 2 hours, then 0.2% CCl4 1 hour
# Description: HC was isolated from the normal mice used in Experiment 8 above. The cells were treated for 2 hours with astilbin or RSG ext, then washed twice with WE medium solution. After washing, 0.1 ml of 0.2% CCl4 in olive oil was added to the cells, and the resulting cells were incubated for 1 hour. The ALT activity in the supernatants was determined by the conventional methods.
# HC isolated from the normal mice was used. The cells were treated for 2 hours with test compounds. After treatment, the cells were washed twice, and incubated for 1 hour after addition of 0.1 ml of 0.2% CCl4. The obtained supernatants were collected for assaying the ALT activity by the conventional methods. For the control studies, non-treated HC with test compounds were used.
# [8] = test system: adherent cells isolated from NPC; assay: Apoptosis measurement No. 1, counting of apoptotic cells (Hoechst 33342); format: cell-based, mice; conditions: 5×10^−5 g/ml, 1 hour, 37° C., FIG. 1
# Description: as §1, with “Additionally, a part of NPC was incubated on the culture plate for 3 hours in order to separate adherent cells from non-adherent cells. […] HC” for “HC”
# [9] = test system: non-adherent cells isolated from NPC; assay: as above; format: cell-based, mice; conditions: 5×10^−5 g/ml, 1 hour, 37° C., FIG. 1
# Description: as §1, with “Additionally, a part of NPC was incubated on the culture plate for 3 hours in order to separate adherent cells from non-adherent cells. […] HC” for “HC”
# [10] = test system: NPC isolated from liver injury mice; assay: Apoptosis measurement No. 2, DNA fragmentation assay (gel agarose electrophoresis); format: cell-based; conditions: 5×10^−5 g/ml, 1 hour, NPC from liver injury mice 12 hours after elicitation
# [11] = NPC pre-incubated 1 hour with various concentrations, co-culture with HC 3 hours, FIG. 2
# [12] = dose 50 mg/kg orally for 6 days
# [13] = dose 100 mg/kg orally for 6 days
structure (smiles),measurement,setting,value
"COC(=O)c1cc(OC)c2c(c1-c1c(C(=O)OC)cc(OC)c3c1OCO3)OCO2 [BDD, biphenyl dimethyl dicarboxylate, reference compound]",ALT elevation,"[1]; 150 mg/kg orally, positive control",significantly decreased
same,ALT,[1]; dose 150 mg/kg orally,510.7 ± 27.0 Karmen unit
same,AST,[1]; dose 150 mg/kg orally,675.6 ± 80.9 Karmen unit
C[C@@H]1O[C@@H](O[C@H]2C(=O)c3c(O)cc(O)cc3O[C@@H]2c2ccc(O)c(O)c2)[C@H](O)[C@H](O)[C@H]1O [astilbin],ALT release,"[2]; 5×10^−5 g/ml, NPC pre-incubated 1 hour, co-culture with HC 3 hours",complete inhibition
same,ALT releasing,"[2]; 5×10^−5 g/ml, pre-treatment of NPC for more than 30 minutes",completely inhibited
same,ALT activity in supernatants of HC co-cultured with pre-treated NPC,[2],dose-dependently inhibited
same,ALT releasing activity of NPC,[2]; [11],dose-dependently inhibited; also recorded: stronger activity than RSG ext
same,AST releasing activity of NPC,[2]; [11],dose-dependently inhibited
same,releasing of ALT from HC,"[2]; NPC pre-treated with 5×10^−5 g/ml for 5, 15, 30, 60 and 120 minutes, FIG. 3",inhibited time-dependently
same,DNA ladder pattern (DNA fragmentation),[3],no DNA ladder' pattern appeared
same,ALT releasing,[4],not changed
same,ratio of apoptotic cells in total NPC,[5],significantly increased
same,"histopathological examination of liver (inflammatory infiltration, hepatocellular coagulation necrosis)",[6],improvement of liver injury
same,serum ALT activity,"[6]; high dose (astilbin 100 mg/kg, RSG ext 200 mg/kg) orally in effector phase, 3 times at 0, 5 and 10 hours after elicitation, blood 18 hours after",significant decrease
same,serum ALT activity,"[6]; low dose (astilbin 50 mg/kg, RSG ext 100 mg/kg) orally in effector phase",tendency of decreasing
same,ALT release from HC treated with CCl4,[7],None of the test compounds
same,ALT release from HC treated with CCl4,[7]; listed as Astilbin,did not affect
same,ratio of apoptotic cells in the fraction of adherent cells of NPC,[8],no influence
same,ratio of apoptotic cells in non-adherent fraction isolated from NPC,[9],increased
same,effect on elevation of ALT and AST activities,"[1]; astilbin 50 or 100 mg/kg, RSG ext 100 or 200 mg/kg orally for 6 days before CCl4",no effect
same,ALT,[1]; [12],901.6 ± 36.1 Karmen unit
same,AST,[1]; [12],670.4 ± 21.2 Karmen unit
same,ALT,[1]; [13],921.5 ± 40.2 Karmen unit
same,AST,[1]; [13],688.2 ± 45.6 Karmen unit
same,DNA ladder pattern (DNA fragmentation),[10],DNA ladder' pattern appeared
"O=P1(N(CCCl)CCCl)NCCCO1 (stereo not drawn) [cyclophosphamide, reference compound]",serum ALT activity,"[6]; 10 mg/kg, given in both induction and effector phases, positive control",significant decrease
same,"histopathological examination of liver (inflammatory infiltration, hepatocellular coagulation necrosis)",[6],improvement of liver injury
C[C@@H]1O[C@@H](O[C@H]2C(=O)c3c(O)cc(O)cc3O[C@@H]2c2ccc(O)cc2)[C@H](O)[C@H](O)[C@H]1O [engeletin],ALT activity in supernatants of HC co-cultured with pre-treated NPC,[2],dose-dependently inhibited
same,ALT release from HC treated with CCl4,[7],None of the test compounds
C[C@@H]1O[C@@H](Oc2coc3cc(O)cc(O)c3c2=O)[C@H](O)[C@H](O)[C@H]1O [eucryphin],ALT activity in supernatants of HC co-cultured with pre-treated NPC,[2],much stronger inhibitory effect
same,ALT release from HC treated with CCl4,[7],None of the test compounds
C[C@@H]1O[C@@H](O[C@@H]2C(=O)c3c(O)cc(O)cc3OC2c2cc(O)cc(O)c2)[C@H](O)[C@H](O)[C@H]1O (stereo partly drawn) [smitilbin],ALT activity in supernatants of HC co-cultured with pre-treated NPC,[2],dose-dependently inhibited
same,ALT release from HC treated with CCl4,[7],None of the test compounds
